Laboratory results published in paper PMC10010340, “The Wnt Pathway Inhibitor RXC004 Blocks Tumor Growth and Reverses Immune Evasion in Wnt Ligand–dependent Cancer Models” (Cancer Research Communications, 2022).

How the values were obtained:
Microsomal stability = assay type: in vitro ADME; conditions: Human, 1 μmol/L
Procedure: Metabolic stability: liver microsomes and hepatocytes from human, mouse (CD1), rat (Sprague Dawley) and dog (Beagle) were obtained from Invitrogen. RXC004 (1 μmol/L) was incubated at 37°C with microsomes (0.5 mg · mL^−1) or hepatocytes (0.5 × 10^6 cells · mL^−1). Aliquots were removed at 0–45 minutes and RXC004 concentrations determined by LC/MS-MS analysis. Half-life (T1/2) and intrinsic clearance (CLint) were calculated as described in ref. [18].

CYP1A2 = molecular target: T1, CYP1A2 (Homo sapiens, UniProt P05177); assay: Cytochrome P450 inhibition in human liver microsomes; assay type: in vitro ADME
T1 construct: from tissue; host or cells: human liver microsomes
Procedure: (§1) Cytochrome P450 (CYP) assays were performed using human liver microsomes incubated with P450 specific substrates as recommended by the FDA ([19]) at a concentration equivalent to Km in the presence of 0.03–30 μmol/L RXC004, or solvent control. Concentration of the metabolites was analyzed by LC/MS-MS.

CYP3A4 = molecular target: T2, CYP3A4 (Homo sapiens, UniProt P08684); assay: as above; assay type: in vitro ADME
T2 construct: from tissue; host or cells: human liver microsomes
Procedure: as §1

CYP2C19 = molecular target: T3, CYP2C19 (Homo sapiens, UniProt P33261); assay: as above; assay type: in vitro ADME
T3 construct: from tissue; host or cells: human liver microsomes
Procedure: as §1

CYP2C9 = molecular target: T4, CYP2C9 (Homo sapiens, UniProt P11712); assay: as above; assay type: in vitro ADME
T4 construct: from tissue; host or cells: human liver microsomes
Procedure: as §1

CYP2D6 = molecular target: T5, CYP2D6 (Homo sapiens, UniProt P10635); assay: as above; assay type: in vitro ADME
T5 construct: from tissue; host or cells: human liver microsomes
Procedure: as §1

SNU-1411 cells = assay: Caspase 3/7 analysis; assay type: cell-based, human; conditions: SNU-1411, 100nM, 7 days
Procedure: (§2) Cells were treated with RXC004 (100 nmol/L) or DMSO (0.02%) for 7 days. Caspase 3/7 activity was measured using Caspase-Glo 3/7 Assay System (Promega #G8091) and data were plotted as a ratio relative to cell number as quantified using ATPlite 1-Step Reagent (Perkin Elmer #6016731).

HPAF-II cells = assay: Caspase 3/7 analysis; assay type: cell-based, human; conditions: 100nM, 7 days
Procedure: as §2

SNU-1411 xenograft = assay: SNU-1411 tumor reimplantation study; assay type: in vivo, mouse (NOD-SCID); conditions: prior treatment 5 mg/kg once daily, 9 days; versus vehicle pretreated
Procedure: The reimplantation study was performed at Sygnature Discovery. SNU-1411–implanted NOD-SCID mice were dosed orally with RXC004 (5 mg/kg, once daily) once tumors reached an average size of 350 mm^3. After 9 days treatment, tumors were resected and equivalent viable tumor fragments from each tumor were reimplanted into separate naïve NOD-SCID mice, tumor volume was assessed at various subsequent timepoints.

B16F10 tumors = assay: B16F10/SCID-Beige model; assay type: in vivo, mouse (SCID-Beige); conditions: 5 mg/kg once daily for 21 days, immunocompromised mice
Procedure: B16F10/SCID-Beige model was performed at Axis Bioservices. Mouse B16F10 cells (2 × 10^5) were subcutaneously implanted in flanks of the immunocompromised male SCID-Beige mice. Treatment with RXC004 (5 mg/kg once daily) was initiated at day 3, once the tumors were palpable, and tumor volume assessed over time.

[1] = test system: small intestine of SCID-Beige mice; assay: In vivo toxicity in mice, 28 days (small intestine H&E, Ki67, body weight); parameters: species or system mouse (SCID-Beige)
Procedure: Groups of 9–10 SCID-Beige mice were dosed at Translational Drug Discovery with vehicle, 1.5 mg/kg or 5 mg/kg RXC004 orally twice daily, or 5 mg/kg RXC004 orally once daily, for 28 days. Formulation: 5% DMSO, 95% hydroxyl propyl beta cyclodextrin (25% w/v). Formalin-fixed, paraffin-embedded (FFPE) samples from the small intestine were assessed by hematoxylin and eosin (H&E) and/or Ki67 staining at Histologix.

In vivo pharmacokinetics = conditions: beagle, dog
Procedure: In vivo pharmacokinetics: RXC004 was dosed to male Sprague Dawley rats, male CD1 mice or dog (beagle) by intravenous and oral routes. Bioanalysis of blood and plasma samples was performed by LC/MS-MS using a Waters TQS or TQMS mass spectrometer. Pharmacokinetic information was derived using WinNonlin software (Certara).

CT26 tumors = assay: CT26/BALB/c syngeneic model; assay type: in vivo, mouse (BALB/c); conditions: RXC004 1.5 or 5 mg/kg once daily; anti-PD-1 10 mg/kg every 3 days
Procedure: CT26/BALB/c syngeneic model was performed at ProQuinase GmbH. Mouse CT26 cells (5 × 10^5) were subcutaneously implanted in the flanks of the immunocompetent female BALB/c mice. Treatment was initiated once tumors reached approximately 50 mm^3. RXC004 was dosed orally at 1.5 or 5 mg/kg (once daily). Anti-PD-1 (BioXCell) or isotype control was dosed every 3 days at 10 mg/kg i.p. Tumor volume was measured over time. For immunophenotyping the tumor infiltrate, tumors from a separate study were resected at day 14, weighed, digested, and stained for flow cytometry analysis by Beckton Dickenson LSR Fortessa. T-cell analysis panel included viability dye, CD45, CD3, CD4, CD8, CD25, and FOXP3.

T1 sequence (P05177 whole entry): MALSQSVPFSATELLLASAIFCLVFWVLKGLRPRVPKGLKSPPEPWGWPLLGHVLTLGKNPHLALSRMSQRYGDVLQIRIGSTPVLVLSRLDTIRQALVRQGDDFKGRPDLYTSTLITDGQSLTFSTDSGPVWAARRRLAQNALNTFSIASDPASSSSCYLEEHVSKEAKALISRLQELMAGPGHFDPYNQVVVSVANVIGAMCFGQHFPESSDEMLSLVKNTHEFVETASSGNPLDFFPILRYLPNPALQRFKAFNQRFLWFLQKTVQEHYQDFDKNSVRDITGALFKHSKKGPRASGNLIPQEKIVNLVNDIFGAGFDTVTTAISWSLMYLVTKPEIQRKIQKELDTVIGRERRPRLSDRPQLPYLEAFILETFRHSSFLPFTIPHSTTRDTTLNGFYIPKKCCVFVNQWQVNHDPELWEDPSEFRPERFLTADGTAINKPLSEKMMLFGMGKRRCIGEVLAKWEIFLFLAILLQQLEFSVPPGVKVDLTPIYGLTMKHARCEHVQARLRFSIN
T3 sequence (P33261 whole entry): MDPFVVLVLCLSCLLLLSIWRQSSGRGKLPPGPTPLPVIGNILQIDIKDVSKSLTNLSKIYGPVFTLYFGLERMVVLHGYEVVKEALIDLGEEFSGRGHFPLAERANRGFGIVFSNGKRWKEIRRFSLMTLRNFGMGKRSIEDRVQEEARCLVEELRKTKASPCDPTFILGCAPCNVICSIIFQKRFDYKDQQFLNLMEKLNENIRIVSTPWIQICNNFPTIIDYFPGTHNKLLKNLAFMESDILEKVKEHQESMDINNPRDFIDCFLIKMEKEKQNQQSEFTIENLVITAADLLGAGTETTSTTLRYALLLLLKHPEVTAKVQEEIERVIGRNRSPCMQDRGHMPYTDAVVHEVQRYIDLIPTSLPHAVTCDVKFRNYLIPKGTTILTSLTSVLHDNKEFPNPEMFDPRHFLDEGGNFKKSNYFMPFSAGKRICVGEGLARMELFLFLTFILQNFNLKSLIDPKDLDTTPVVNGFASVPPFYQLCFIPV
T2 sequence (P08684 whole entry): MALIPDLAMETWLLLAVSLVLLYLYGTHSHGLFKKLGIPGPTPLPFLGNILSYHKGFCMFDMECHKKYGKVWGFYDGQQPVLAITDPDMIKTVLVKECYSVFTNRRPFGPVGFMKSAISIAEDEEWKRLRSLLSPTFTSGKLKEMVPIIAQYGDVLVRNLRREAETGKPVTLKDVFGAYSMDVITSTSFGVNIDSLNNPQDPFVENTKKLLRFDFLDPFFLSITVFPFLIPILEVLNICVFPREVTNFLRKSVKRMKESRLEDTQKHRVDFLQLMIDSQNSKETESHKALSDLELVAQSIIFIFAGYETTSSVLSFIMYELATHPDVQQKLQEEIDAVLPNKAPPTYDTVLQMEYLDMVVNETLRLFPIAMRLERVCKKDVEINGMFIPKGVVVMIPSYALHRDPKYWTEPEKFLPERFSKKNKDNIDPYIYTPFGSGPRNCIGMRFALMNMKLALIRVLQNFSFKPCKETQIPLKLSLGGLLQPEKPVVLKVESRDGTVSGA
T4 sequence (P11712 whole entry): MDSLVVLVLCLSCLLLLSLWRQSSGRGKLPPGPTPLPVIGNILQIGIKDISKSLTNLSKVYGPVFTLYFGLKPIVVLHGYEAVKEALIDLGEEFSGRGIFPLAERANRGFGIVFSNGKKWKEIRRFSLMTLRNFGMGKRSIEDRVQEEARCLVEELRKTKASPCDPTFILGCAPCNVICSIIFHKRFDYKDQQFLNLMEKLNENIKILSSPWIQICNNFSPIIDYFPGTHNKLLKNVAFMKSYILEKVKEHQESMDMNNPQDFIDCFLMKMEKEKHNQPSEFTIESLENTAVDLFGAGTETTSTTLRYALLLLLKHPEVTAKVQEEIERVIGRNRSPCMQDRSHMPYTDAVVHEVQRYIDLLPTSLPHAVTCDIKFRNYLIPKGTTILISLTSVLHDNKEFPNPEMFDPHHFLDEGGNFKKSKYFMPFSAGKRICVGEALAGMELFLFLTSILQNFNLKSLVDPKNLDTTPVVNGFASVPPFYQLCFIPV
T5 sequence (P10635 whole entry): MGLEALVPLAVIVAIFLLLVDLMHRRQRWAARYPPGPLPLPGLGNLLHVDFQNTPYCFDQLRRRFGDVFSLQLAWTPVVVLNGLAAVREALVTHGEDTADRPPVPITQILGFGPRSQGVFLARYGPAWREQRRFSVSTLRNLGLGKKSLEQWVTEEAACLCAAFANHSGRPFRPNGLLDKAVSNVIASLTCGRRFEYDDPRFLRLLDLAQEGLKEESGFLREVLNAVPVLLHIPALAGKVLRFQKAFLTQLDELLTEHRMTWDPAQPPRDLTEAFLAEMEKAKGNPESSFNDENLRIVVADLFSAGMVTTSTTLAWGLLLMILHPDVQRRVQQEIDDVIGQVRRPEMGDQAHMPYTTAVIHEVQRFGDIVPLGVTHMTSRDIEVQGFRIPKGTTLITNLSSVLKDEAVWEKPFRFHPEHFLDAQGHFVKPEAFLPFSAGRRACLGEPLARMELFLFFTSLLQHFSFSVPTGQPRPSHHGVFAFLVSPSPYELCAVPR

Cc1c(-c2ccnc(C(F)(F)F)c2)ncn1CC(=O)Nc1ccc(-c2cnccn2)cn1 [RXC004, 2-[5-methyl-4-[2-(trifluoromethyl)-4-pyridyl]imidazol-1-yl]-N-(5-pyrazin-2-yl-2-pyridyl)acetamide]
Microsomal stability: CLint (Microsomal stability): 6.0 μL minute^−^1 · mg^−^1 | IC50 (CYP1A2): > 25 µM | IC50 (CYP3A4): > 25 µM | IC50 (CYP2C19): > 25 µM | IC50 (CYP2C9): > 25 µM | IC50 (CYP2D6): > 25 µM | relative Caspase 3/7 activity (SNU-1411 cells): no effect | relative Caspase 3/7 activity (HPAF-II cells): no effect | tumor growth after reimplantation into naïve untreated mice (SNU-1411 xenograft): prolonged impact on tumor growth | tumor growth (B16F10 tumors): did not reduce tumor growth | Ki67 proliferation marker in intestinal crypts ([1]; 1.5 mg/kg twice daily): no effect on the Ki67 proliferation marker | villi architecture ([1]; 1.5 mg/kg twice daily): No effects | villi architecture ([1]; 5 mg/kg once daily): No effects | Ki67 proliferation marker in intestinal crypts ([1]; 5 mg/kg twice daily): clear decrease | body weight ([1]; 5 mg/kg twice daily): loss of body weight | villi architecture ([1]; 5 mg/kg twice daily, only in some animals): Disruption of villi architecture | half-life (In vivo pharmacokinetics; dose i.v./p.o. 2/5 mg/kg, read-out: T½ (converted)): 48 min | clearance (In vivo pharmacokinetics; intravenous, 2 mg/kg, dose i.v./p.o. 2/5 mg/kg): 8.9 mL/min/kg | Vd (In vivo pharmacokinetics; intravenous, 2 mg/kg, dose i.v./p.o. 2/5 mg/kg, read-out: Vss): 0.39 L/kg | AUC(0-inf) (In vivo pharmacokinetics; po, 5 mg/kg p.o.): 8.6 µM·h | Cmax (In vivo pharmacokinetics; po, 5 mg/kg p.o.): 10.4 µM | concentration at 24 h (In vivo pharmacokinetics; po, 5 mg/kg p.o., read-out: C24h (p.o.)): 0.012 µM | tumor growth (CT26 tumors): limited effect on tumor growth
